Reference: ChEMBL document CHEMBL1949508, “The selective cytotoxic activity in breast cancer cells by an anthranilic alcohol-derived acyclic 5-fluorouracil O,N-acetal is mediated by endoplasmic reticulum stress-induced apoptosis” (Eur J Med Chem, 2012)
Calls of active or inactive are those of the source. The rule behind the calls is not given here.

Columns and labels:
[1] = test system: MCF7; experiment: Downregulation of FAIM gene in human MCF7 cells at 1.09 uM after 48 hrs by microarray hybridization relative to control; format: functional
[2] = test system: MCF7; experiment: Downregulation of CCL2 gene in human MCF7 cells at 1.09 uM after 48 hrs by microarray hybridization relative to control; format: functional
[3] = test system: MCF-10A; experiment: Upregulation of BBC3 gene in human MCF10A cells at 37.67 uM after 48 hrs by microarray hybridization relative to control; format: functional, cell-based
[4] = test system: MCF-10A; experiment: Upregulation of MTL5 gene in human MCF10A cells at 37.67 uM after 48 hrs by microarray hybridization relative to control; format: functional, cell-based
[5] = test system: MCF-10A; experiment: Upregulation of BMF gene in human MCF10A cells at 37.67 uM after 48 hrs by microarray hybridization relative to control; format: functional, cell-based
[6] = test system: MCF-10A; experiment: Upregulation of BNIP3L gene in human MCF10A cells at 37.67 uM after 48 hrs by microarray hybridization relative to control; format: functional, cell-based
[7] = test system: MCF-10A; experiment: Upregulation of BNIP3 gene in human MCF10A cells at 37.67 uM after 48 hrs by microarray hybridization relative to control; format: functional, cell-based
[8] = test system: MCF-10A; experiment: Upregulation of GADD45A gene in human MCF10A cells at 37.67 uM after 48 hrs by microarray hybridization relative to control; format: functional, cell-based
[9] = test system: MCF-10A; experiment: Upregulation of CARD14 gene in human MCF10A cells at 37.67 uM after 48 hrs by microarray hybridization relative to control; format: functional, cell-based
[10] = test system: MCF-10A; experiment: Upregulation of GADD45B gene in human MCF10A cells at 37.67 uM after 48 hrs by microarray hybridization relative to control; format: functional, cell-based
[11] = test system: MCF-10A; experiment: Upregulation of DNASE1 gene in human MCF10A cells at 37.67 uM after 48 hrs by microarray hybridization relative to control; format: functional, cell-based
[12] = test system: MCF-10A; experiment: Upregulation of NOXA gene in human MCF10A cells at 37.67 uM after 48 hrs by microarray hybridization relative to control; format: functional, cell-based
[13] = test system: MCF-10A; experiment: Downregulation of UNC5C gene in human MCF10A cells at 37.67 uM after 48 hrs by microarray hybridization relative to control; format: functional, cell-based
[14] = test system: MCF-10A; experiment: Downregulation of CARD9 gene in human MCF10A cells at 37.67 uM after 48 hrs by microarray hybridization relative to control; format: functional, cell-based
[15] = test system: MCF-10A; experiment: Downregulation of AVEN gene in human MCF10A cells at 37.67 uM after 48 hrs by microarray hybridization relative to control; format: functional, cell-based
[16] = test system: MCF-10A; experiment: Downregulation of BCL2 gene in human MCF10A cells at 37.67 uM after 48 hrs by microarray hybridization relative to control; format: functional, cell-based
[17] = test system: MCF-10A; experiment: Downregulation of BAG2 gene in human MCF10A cells at 37.67 uM after 48 hrs by microarray hybridization relative to control; format: functional, cell-based
[18] = test system: MCF-10A; experiment: Downregulation of CD14 gene in human MCF10A cells at 37.67 uM after 48 hrs by microarray hybridization relative to control; format: functional, cell-based
[19] = test system: MCF-10A; experiment: Downregulation of E2F1 gene in human MCF10A cells at 37.67 uM after 48 hrs by microarray hybridization relative to control; format: functional, cell-based
[20] = test system: MCF-10A; experiment: Downregulation of […] gene in human MCF10A cells at 37.67 uM after 48 hrs by microarray hybridization relative to control; format: functional, cell-based
[21] = test system: MCF-10A; experiment: Downregulation of TP5313 gene in human MCF10A cells at 37.67 uM after 48 hrs by microarray hybridization relative to control; format: functional, cell-based
[22] = test system: MCF-10A; experiment: Downregulation of FAIM gene in human MCF10A cells at 37.67 uM after 48 hrs by microarray hybridization relative to control; format: functional, cell-based
[23] = test system: MCF-10A; experiment: Downregulation of CCL2 gene in human MCF10A cells at 37.67 uM after 48 hrs by microarray hybridization relative to control; format: functional, cell-based
[24] = test system: MCF7; experiment: Upregulation of BBC3 gene in human MCF7 cells at 1.09 uM after 48 hrs by quantitative RT-PCR analysis; format: functional, cell-based
[25] = test system: MCF-10A; experiment: Upregulation of BBC3 gene in human MCF10A cells at 37.67 uM after 48 hrs by quantitative RT-PCR analysis; format: functional, cell-based
[26] = test system: MCF7; experiment: Upregulation of NOXA gene in human MCF7 cells at 1.09 uM after 48 hrs by quantitative RT-PCR analysis; format: functional, cell-based
[27] = test system: MCF7; experiment: Modulation of p53 gene expression in human MCF7 cells at 1.09 uM after 48 hrs by quantitative RT-PCR analysis; format: functional, cell-based
[28] = test system: MCF7; experiment: Modulation of Apaf-1 gene expression in human MCF7 cells at 1.09 uM after 48 hrs by quantitative RT-PCR analysis; format: functional, cell-based
[29] = test system: MCF7; experiment: Downregulation of Bcl2 gene expression in human MCF7 cells at 1.09 uM after 48 hrs by quantitative RT-PCR analysis; format: functional, cell-based
[30] = test system: MCF7; experiment: Upregulation of BBC3 protein expression in human MCF7 cells at […] after 48 hrs by Western blot analysis relative to control; format: functional
[31] = test system: MCF-10A; experiment: Upregulation of BBC3 protein expression in human MCF10A cells at 37.67 uM after 48 hrs by Western blot analysis relative to control; format: functional
[32] = Therapeutic index, ratio of IC50 for human MCF10A cells to IC50 for human MCF7 cells; format: cell-based; conditions: MCF10A cells and MCF7 cells, read-out: Ratio IC50

For COC(CN(c1ccccc1CO)S(=O)(=O)c1ccccc1N)n1cc(F)c(=O)[nH]c1=O (racemic), the “fold change (FC)” value [1] was -3.1, the “fold change (FC)” value [2] was -3.77 and the Activity [3] was “inactive”. For the same compound, the Activity [4] was “inactive”, the Activity [5] was “inactive” and the Activity [6] was “inactive”. For the same compound, the Activity [7] was “inactive”, the Activity [8] was “inactive” and the Activity [9] was “inactive”. The Activity [10] was “inactive”, the Activity [11] was “inactive” and the Activity [12] was “inactive”. The Activity [13] was “inactive”, the Activity [14] was “inactive” and the Activity [15] was “inactive”. For the same compound, the Activity [16] was “inactive”, the Activity [17] was “inactive” and the Activity [18] was “inactive”. For the same compound, the Activity [19] was “inactive”, the Activity [20] was “inactive” and the Activity [21] was “inactive”. For the same compound, the Activity [22] was “inactive”, the Activity [23] was “inactive” and the Activity [24] was “Active”. The Activity [25] was “inactive”, the Activity [26] was “Active” and the Activity [27] was “inactive”. The Activity [28] was “inactive”, the Activity [29] was “Active” and the “fold change (FC)” value [30] was 2.74. For the same compound, the “fold change (FC)” value [31] was 1.13 and the selectivity ratio [32] was 34.5.
